Measured values published in ChEMBL document CHEMBL4732132, “Stereoselective synthesis of novel 2'-(S)-CCG-IV analogues as potent NMDA receptor agonists” (Eur J Med Chem, 2021).
Activity calls are given as the source filed them. The rule behind the calls is not given here.

How the values were obtained:
[1] = Agonist activity at recombinant rat GluN1a/GluN2B receptor expressed in Xenopus laevis oocytes assessed as increase in glycine/glutamate-induced channel current at -40 mV holding potential by two-electrode voltage clamp method relative to control; type: cell-based, Oocyte; details: for Emax: Rattus norvegicus, Oocyte, read-out: Efficacy
[2] = Agonist activity at recombinant rat GluN1a/GluN2D receptor expressed in Xenopus laevis oocytes assessed as increase in glycine/glutamate-induced channel current at -40 mV holding potential by two-electrode voltage clamp method; type: cell-based, Oocyte
[3] = Agonist activity at recombinant rat GluN1a/GluN2A receptor expressed in Xenopus laevis oocytes assessed as increase in glycine/glutamate-induced channel current at -40 mV holding potential by two-electrode voltage clamp method; type: cell-based, Oocyte
Oocyte [4] = assay: Agonist activity at recombinant rat GluN1a/GluN2C receptor expressed in Xenopus laevis oocytes assessed as increase in glycine/glutamate-induced channel current at -40 mV holding potential by two-electrode voltage clamp method relative to control; type: cell-based
[5] = Agonist activity at recombinant rat GluN1a/GluN2B receptor expressed in Xenopus laevis oocytes assessed as increase in glycine/glutamate-induced channel current at -40 mV holding potential by two-electrode voltage clamp method; type: cell-based, Oocyte
[6] = Agonist activity at recombinant rat GluN1a/GluN2C receptor expressed in Xenopus laevis oocytes assessed as increase in glycine/glutamate-induced channel current at -40 mV holding potential by two-electrode voltage clamp method; type: cell-based, Oocyte
[7] = Agonist activity at recombinant rat GluN1a/GluN2D receptor expressed in Xenopus laevis oocytes assessed as increase in glycine/glutamate-induced channel current at -40 mV holding potential by two-electrode voltage clamp method relative to control; type: cell-based, Oocyte; details: for Emax: Rattus norvegicus, Oocyte, read-out: Efficacy
Oocyte [8] = assay: Agonist activity at recombinant rat GluN1a/GluN2A receptor expressed in Xenopus laevis oocytes assessed as increase in glycine/glutamate-induced channel current at -40 mV holding potential by two-electrode voltage clamp method relative to glutamate; type: cell-based
[9] = Rattus norvegicus, Oocyte, read-out: EC50

Structure (SMILES)	EC50 [2, 9] [nM]	EC50 [3, 9] [nM]	Efficacy (Oocyte [4]; filed as agonist) [%]	EC50 [5, 9] [nM]	EC50 [6, 9] [nM]	Efficacy (Oocyte [8]; filed as agonist) [%]	Efficacy ([1]; rat, oocyte)	EC50 ([2]; oocyte)	EC50 ([3]; oocyte)	Efficacy (Oocyte [4])	EC50 ([5]; oocyte)	EC50 ([6]; oocyte)	Efficacy ([7]; rat, oocyte)	Efficacy (Oocyte [8])	Emax [1] [%]	Emax [7] [%]
CCCC[C@]1(C(=O)O)C[C@H]1[C@H](N)C(=O)O	3300	30000	85	10000	16000	65									107	94
C=CCOC[C@]1(C(=O)O)C[C@H]1[C@H](N)C(=O)O	700	3700	84.9	1500	2600	73.9									111	98.7
[N-]=[N+]=NC[C@]1(C(=O)O)C[C@H]1[C@H](N)C(=O)O	400	4500	62.7	900	2700	81.7									92.6	76.9
N[C@H](C(=O)O)[C@@H]1C[C@]1(COCc1ccccc1)C(=O)O							Not Active	Not Active	Not Active	inactive	Not Active	Not Active	Not Active	inactive		

Further lines, with some results ahead:

EC50 [2, 9] [nM]	EC50 [3, 9] [nM]	Efficacy (Oocyte [4]; filed as agonist) [%]	EC50 [5, 9] [nM]	EC50 [6, 9] [nM]	Efficacy (Oocyte [8]; filed as agonist) [%]	Efficacy ([1]; rat, oocyte)	EC50 ([2]; oocyte)	EC50 ([3]; oocyte)	Efficacy (Oocyte [4])	EC50 ([5]; oocyte)	EC50 ([6]; oocyte)	Efficacy ([7]; rat, oocyte)	Efficacy (Oocyte [8])	Structure (SMILES)	Emax [1] [%]	Emax [7] [%]
400	3000	98.2	1100	1900	91									N[C@H](C(=O)O)[C@@H]1C[C@]1(CO)C(=O)O	116	104
30	260	90	80	110	99									C[C@]1(C(=O)O)C[C@H]1[C@H](N)C(=O)O	123	111
300	4800	86	1000	2500	87									N[C@H](C(=O)O)[C@@H]1C[C@]1(CS)C(=O)O	103	93
